# Source: paper PMC5849655 (European Journal of Clinical Pharmacology, 2017)
# Where two headings read alike, the source gives them in different places.
# What was measured:
# [1] = Caco-2 permeability (siponimod, reference compound); type: in vitro ADME, human; details: human, Caco-2; SimCYP V9 input of the siponimod model; read-out: Reference compound permeability
# Protocol: (§1) Siponimod absorption was predicted based on the permeability of Caco-2 cell (human colon carcinoma cell line) monolayers and considered to be complete (fraction absorbed [fa] = 1). Absorption rate constant (Ka) was calculated from the first clinical data to be 0.98/h. […] A volume of distribution of 2.12 L/kg was estimated based on preclinical data observation. The initial CL estimation of the siponimod model was based on human in vitro data from HLM and recombinant enzyme kinetics [unpublished data]. By using the in vivo clearance (CL/F) together with the fractional contribution of each CYP enzyme (phenotyping data) in the SimCYP retrograde calculator, the enzyme CLint values were estimated, resulting in an improved drug exposure prediction (Table 3).
# [2] = test system: Caco-2 cell (human colon carcinoma cell line) monolayers; test: as above; type: in vitro ADME; details: SimCYP V12 input of the siponimod model
# Protocol: as §1
# [3] = cited from earlier work
# [4] = cited from earlier work; remark: listed apart in the source
# CYP3A5 = details: cited from earlier work
# CYP2C19 = CYP2C19 (Homo sapiens, UniProt P33261); details: cited from earlier work; for Ki: read-out: Competitive inhibition constant, Ki (CYP2C19)
# Chain of CYP2C19 (P33261 whole entry): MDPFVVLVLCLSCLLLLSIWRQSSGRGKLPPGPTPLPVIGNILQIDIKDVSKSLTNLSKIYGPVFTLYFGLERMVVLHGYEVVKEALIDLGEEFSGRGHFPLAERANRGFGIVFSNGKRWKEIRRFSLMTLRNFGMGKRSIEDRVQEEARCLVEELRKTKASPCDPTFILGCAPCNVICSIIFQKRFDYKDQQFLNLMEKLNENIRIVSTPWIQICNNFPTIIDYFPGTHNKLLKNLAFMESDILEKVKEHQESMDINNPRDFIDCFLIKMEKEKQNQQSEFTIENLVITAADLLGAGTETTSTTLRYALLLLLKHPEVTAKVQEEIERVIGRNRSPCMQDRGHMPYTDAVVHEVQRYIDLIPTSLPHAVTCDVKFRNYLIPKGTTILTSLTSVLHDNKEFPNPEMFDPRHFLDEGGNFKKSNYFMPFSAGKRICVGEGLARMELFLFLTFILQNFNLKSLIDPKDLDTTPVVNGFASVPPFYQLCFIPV
# Caco 2 = details: cited from earlier work
# CYP = details: cited from earlier work
# [5] = cited from earlier work; remark: listed apart in the source
smiles,measurement,setting,value
"CC(C)NCC(O)COc1cccc2ccccc12 (stereo not shown) [Propranolol, reference compound]",Papp,[1],5.33 ×10⁻⁶ cm/s
same,Reference compound permeability,[2],Propranolol 5.33 10^-6cm/s
OC(Cn1cncn1)(Cn1cncn1)c1ccc(F)cc1F [fluconazole],Main plasma binding protein,[3]; ref SimCYP version 9,HSA
same,Main plasma binding protein,[3]; ref SimCYP version 16,HSA
same,"In vivo po clearance, CLpo",[4]; ref SimCYP version 9,1.5 L/h
same,"Renal clearance in a 20-30 yr healthy male, CLR",[4]; ref SimCYP version 9,0.865 L/h
same,"Volume of distribution, Vss",[4]; ref SimCYP version 9,0.57 L/kg
same,"In vivo iv clearance, CLiv",[4]; ref SimCYP version 16,1.01 L/h
same,"Renal clearance in a 20-30 yr healthy male, CLR",[4]; ref SimCYP version 16,0.700 L/h
same,"Volume of distribution, Vss",[4]; ref SimCYP version 16,0.748 L/kg
same,"In vivo iv clearance, CLiv","[4]; used in the V9 model, ref SimCYP V7",1.3 (SimCYP V7) L/h
same,"Fraction unbound in vitro, fumic (CYP3A5)",CYP3A5; ref SimCYP version 9,1
same,"Fraction unbound in vitro, fumic (CYP3A5)",CYP3A5; ref SimCYP version 16,1
same,"Fraction unbound in vitro, fumic (CYP2C19)",CYP2C19; ref SimCYP version 9,1
same,Ki,CYP2C19; ref SimCYP version 9,2000 nM
same,"Fraction unbound in vitro, fumic (CYP2C19)",CYP2C19; ref SimCYP version 16,1
same,Ki,CYP2C19; ref SimCYP version 16,2000 nM
same,"Caco 2 permeability, P Caco 2",Caco 2; ref SimCYP version 9,29.8 10^-6cm/s
same,"Caco 2 permeability, P Caco 2",Caco 2; ref SimCYP version 16,29.8 10^-6cm/s
same,Is the compound a CYP inducer?,CYP; ref SimCYP version 9,no
same,Is the compound a MBI?,CYP; ref SimCYP version 9,no
same,Is the compound a CYP inducer?,CYP; ref SimCYP version 16,no
same,Is the compound a MBI?,CYP; ref SimCYP version 16,no
same,Compound type,[5]; ref SimCYP version 9,monoprotic base
same,Compound type,[5]; ref SimCYP version 16,monoprotic base
